These results are taken from US20080139654A1, “ACETAMINOPHEN COMPOSITIONS HAVING MINIMIZED SIDE EFFECTS INCLUDING REDUCED HEPATOTOXICITY” (priority 2006, published 2008).

For data set [1] the following is noted: rats, oral methionine 200 mg/kg/day for 14 days; cited from earlier work.
The conditions of data set [2]: male, human, in vivo. The text has this: A construction worker* fell from a height of about 8 feet, severely breaking their right ankle and wrist. (*to promote privacy and simplify description of the invention, the patient and symptoms described here are a composite of data from typical patients). Orthopedic surgery repaired the injury, followed by prolonged and painful rehabilitation. A prescription for 60 Vicodin tablets (a composition comprising acetaminophen and hydrocodone) is given routinely during such post-surgical recovery periods. Typcially, the first day 4 to 8 vicodin tablets manage pain (often in combination with sedatives and the aftereffects of surgical anesthetics).
On the second day, at least 8 Vicodin® tablets are generally required to get the same analgesic effect (Vicodin is a well known trademark, which will also be referred to herein by “vicodin”). Subsequently, it is common that more than 10 vicodin tablets per day are taken, contrary to the doctor's instructions, yet less pain relief is noted with this higher dosage. At this rate, the patient must seek a refill in only a week; often doctors refilling such prescriptions give a stern advisory about taking too many pills and the dangers of Tylenol/acetaminophen. Subsequently, the patient sought prescriptions from other physicians and took 30 Vicodin tablets each day. […]

The conditions of data set [3]: rat, oral.
Protocol: The effect of prophylactic administration of n-acetylcysteine (NAC) on acetaminophen hepatotoxicity can be determined in the rat. In a double-blind placebo study, four groups of rats are given one of the following oral dosings: “NAC-free” (NF), low NAC (LN), medium NAC (MN), or high NAC(HN). Then rats in all groups are administered a toxic dose of acetaminophen (1 g/kg body weight) orally. After 24 hours, animal are euthanized and assessed for hepatotoxicity by the elevation of serum transaminases and by a necrotic score based on histological examination.
In the following protocol, all rats in the study are given the LD50 dose of acetaminophen (determined by the dosage of acetaminophen that causes 50% of the test subjects to expire after a predetermined period of time). […] The study is conducted in double-blind fashion; four groups of rats are given one of the following oral dosings: “NAC-free” (NF or placebo), low NAC (LN), medium NAC (MN), or high NAC(HN). Then rats in all groups are administered a LD50 dose of acetaminophen. All animals are euthanized 3 weeks later and hepatotoxicity assessed by the elevation of serum transaminases and by a necrotic score based on histological examination. Mortality in all groups will also be followed as the added criterion.
For data set [4] the following is noted: Mucomyst monograph; cited from earlier work.
For data set [5] the following is noted: person, 4 grams/day; cited from earlier work.

The structures appear in SMILES notation.

On to `CSCC[C@H](N)C(=O)O` [methionine], for which, in data set [1], the angiotoxic effects result is reported as “angiotoxic effects similar to atherosclerosis” and the “concentrations of homocysteine in serum” value is given as “increased”.
`CC(=O)Nc1ccc(O)cc1` [acetaminophen, N-acetyl-p-aminophenol]: the destruction of liver entry in data set [2] was “over 90%”. The “LD50 dose of acetaminophen” value in data set [3] was 0.5 g/kg of Body weight. The “large overdose that saturates glucuronide and sulfate conjugation pathways, leading to hepatic cellular necrosis” value in data set [4] is no less than 150 mg·kg. Also, in data set [5], the “hepatotoxicity at recommended dose” value is “severe hepatotoxicity”.
